Reference: ChEMBL document CHEMBL1201862, “PubChem BioAssay data set” (2004)
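Assay format: 96-well plates, 48-hour exposure. GI50: concentration for 50% inhibition of growth.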 Active and inactive are the calls of the source. Rule as the data show it: active = GI50 up to about 1.1 µM and inactive = higher.

Legend:
Experiment in all cases: NCI tumour cell line growth inhibition, 48 h
T47D = test system: T47D
MDA-MB-231 = test system: MDA-MB-231
RXF 393 = test system: RXF 393
MDA-MB-435 = test system: MDA-MB-435
MOLT-4 = test system: MOLT-4
A549 = test system: A549
HCC 2998 = test system: HCC 2998
U-251 = test system: U-251
SF-295 = test system: SF-295
Malme-3M = test system: Malme-3M
K562 = test system: K562
SR = test system: SR
PC-3 = test system: PC-3
UACC-257 = test system: UACC-257
MDA-N = test system: MDA-N
786-0 = test system: 786-0
COLO 205 = test system: COLO 205
HCT-15 = test system: HCT-15
SK-OV-3 = test system: SK-OV-3
A498 = test system: A498
MCF7 = test system: MCF7
BT-549 = test system: BT-549
SF-539 = test system: SF-539
NCI-H460 = test system: NCI-H460
HCT-116 = test system: HCT-116
SK-MEL-5 = test system: SK-MEL-5
EKVX = test system: EKVX
NCI-H522 = test system: NCI-H522
CCRF-CEM = test system: CCRF-CEM
OVCAR-4 = test system: OVCAR-4
TK-10 = test system: TK-10
SK-MEL-2 = test system: SK-MEL-2
OVCAR-3 = test system: OVCAR-3
DU-145 = test system: DU-145
SN12C = test system: SN12C
IGROV-1 = test system: IGROV-1
HOP-62 = test system: HOP-62
UACC-62 = test system: UACC-62
M14 = test system: M14
CAKI-1 = test system: CAKI-1
NCI-H23 = test system: NCI-H23
OVCAR-5 = test system: OVCAR-5
OVCAR-8 = test system: OVCAR-8
KM12 = test system: KM12
LOX IMVI = test system: LOX IMVI
HT-29 = test system: HT-29
SF-268 = test system: SF-268
SNB-75 = test system: SNB-75
NCI-H226 = test system: NCI-H226
HOP-92 = test system: HOP-92
NCI/ADR-RES = test system: NCI/ADR-RES
UO-31 = test system: UO-31
SK-MEL-28 = test system: SK-MEL-28
SNB-19 = test system: SNB-19
HL-60 = test system: HL-60
ACHN = test system: ACHN
RPMI-8226 = test system: RPMI-8226
SW-620 = test system: SW-620

O=c1c(O)c(-c2ccccc2)oc2c(CP(=O)(O)O)cccc12
GI50 (T47D): > 100 µM (inactive)
GI50 (MDA-MB-231): > 100 µM (inactive)
GI50 (RXF 393): > 100 µM (inactive)
GI50 (MDA-MB-435): > 100 µM (inactive)
GI50 (MOLT-4): > 100 µM (inactive)
GI50 (A549): > 100 µM (inactive)
GI50 (HCC 2998): > 100 µM (inactive)
GI50 (U-251): > 100 µM (inactive)
GI50 (SF-295): > 100 µM (inactive)
GI50 (Malme-3M): > 100 µM (inactive)
GI50 (K562): > 100 µM (inactive)
GI50 (SR): > 100 µM (inactive)
GI50 (PC-3): > 100 µM (inactive)
GI50 (UACC-257): > 100 µM (inactive)
GI50 (MDA-N): > 100 µM (inactive)
GI50 (786-0): > 100 µM (inactive)
GI50 (COLO 205): > 100 µM (inactive)
GI50 (HCT-15): > 100 µM
GI50 (SK-OV-3): > 100 µM (inactive)
GI50 (A498): > 100 µM (inactive)
GI50 (MCF7): > 100 µM (inactive)
GI50 (BT-549): > 100 µM (inactive)
GI50 (SF-539): > 100 µM (inactive)
GI50 (NCI-H460): > 100 µM (inactive)
GI50 (HCT-116): > 100 µM (inactive)
GI50 (SK-MEL-5): > 100 µM (inactive)
GI50 (EKVX): > 100 µM (inactive)
GI50 (NCI-H522): > 100 µM (inactive)
GI50 (CCRF-CEM): > 100 µM (inactive)
GI50 (OVCAR-4): > 100 µM (inactive)
GI50 (TK-10): > 100 µM (inactive)
GI50 (SK-MEL-2): > 100 µM (inactive)
GI50 (OVCAR-3): > 100 µM (inactive)
GI50 (DU-145): > 100 µM (inactive)
GI50 (SN12C): > 100 µM (inactive)
GI50 (IGROV-1): > 100 µM (inactive)
GI50 (HOP-62): 8.55 µM (inactive)
GI50 (UACC-62): > 100 µM (inactive)
GI50 (M14): > 100 µM (inactive)
GI50 (CAKI-1): > 100 µM (inactive)
GI50 (NCI-H23): > 100 µM (inactive)
GI50 (OVCAR-5): > 100 µM (inactive)

CN(C)CCCNC(=O)c1cc(NC(=O)CCCn2c3ccccc3c3ccccc32)cn1C
GI50 (OVCAR-8): 48.3 µM (inactive)
GI50 (T47D): 19.1 µM (inactive)
GI50 (MDA-MB-231): 21 µM (inactive)
GI50 (RXF 393): 32.8 µM (inactive)
GI50 (MDA-MB-435): 24.3 µM (inactive)
GI50 (KM12): 21.4 µM (inactive)
GI50 (MOLT-4): 11.4 µM (inactive)
GI50 (A549): 20.7 µM (inactive)
GI50 (U-251): 37.3 µM (inactive)
GI50 (SF-295): 25.9 µM (inactive)
GI50 (Malme-3M): 17.2 µM (inactive)
GI50 (LOX IMVI): 31 µM (inactive)
GI50 (K562): 31.6 µM (inactive)
GI50 (PC-3): 20.7 µM (inactive)
GI50 (MDA-N): 35.1 µM (inactive)
GI50 (786-0): 80.9 µM (inactive)
GI50 (HT-29): 47.6 µM (inactive)
GI50 (SF-268): 66.7 µM (inactive)
GI50 (SNB-75): 43 µM (inactive)
GI50 (NCI-H226): 25.3 µM (inactive)
GI50 (COLO 205): 21.9 µM (inactive)
GI50 (HCT-15): 45.7 µM
GI50 (SK-OV-3): > 100 µM (inactive)
GI50 (A498): 17.7 µM (inactive)
GI50 (MCF7): 35.5 µM (inactive)
GI50 (BT-549): > 100 µM (inactive)
GI50 (SF-539): 71.3 µM (inactive)
GI50 (NCI-H460): 28.8 µM (inactive)
GI50 (HOP-92): 2.13 µM (inactive)
GI50 (HCT-116): 25.9 µM (inactive)
GI50 (SK-MEL-5): 16.7 µM (inactive)
GI50 (EKVX): 15.6 µM (inactive)
GI50 (CCRF-CEM): 29.6 µM (inactive)
GI50 (OVCAR-4): 43.1 µM (inactive)
GI50 (NCI/ADR-RES): > 100 µM (inactive)
GI50 (UO-31): 25.5 µM (inactive)
GI50 (SK-MEL-28): 49.7 µM (inactive)
GI50 (SNB-19): 25 µM (inactive)
GI50 (TK-10): 22.5 µM (inactive)
GI50 (SK-MEL-2): 34.8 µM (inactive)
GI50 (OVCAR-3): 11.5 µM (inactive)
GI50 (DU-145): > 100 µM (inactive)
GI50 (SN12C): 48.5 µM (inactive)
GI50 (HL-60): 22.5 µM (inactive)
GI50 (IGROV-1): 6.64 µM (inactive)
GI50 (HOP-62): > 100 µM (inactive)
GI50 (UACC-62): 20.8 µM (inactive)
GI50 (ACHN): 26.9 µM (inactive)
GI50 (M14): 28.1 µM (inactive)
GI50 (CAKI-1): 21.8 µM (inactive)
GI50 (NCI-H23): 31.8 µM (inactive)
GI50 (RPMI-8226): 17.1 µM (inactive)
GI50 (SW-620): > 100 µM (inactive)
GI50 (OVCAR-5): 73.6 µM (inactive)

COc1ccc(N2C(=O)CSC2c2c[nH]c3ccccc23)cc1 (stereo not given)
GI50 (OVCAR-8): 60 µM (inactive)
GI50 (T47D): > 100 µM (inactive)
GI50 (MDA-MB-231): 72.9 µM (inactive)
GI50 (RXF 393): > 100 µM (inactive)
GI50 (MDA-MB-435): 41.5 µM (inactive)
GI50 (KM12): 28.4 µM (inactive)
GI50 (MOLT-4): 33 µM (inactive)
GI50 (HCC 2998): > 100 µM (inactive)
GI50 (U-251): 88.7 µM (inactive)
GI50 (SF-295): 44.9 µM (inactive)
GI50 (LOX IMVI): 78.9 µM (inactive)
GI50 (K562): 26.2 µM (inactive)
GI50 (SR): 43 µM (inactive)
GI50 (PC-3): 24.7 µM (inactive)
GI50 (UACC-257): > 100 µM (inactive)
GI50 (MDA-N): 35.2 µM (inactive)
GI50 (HT-29): 51.1 µM (inactive)
GI50 (SF-268): > 100 µM (inactive)
GI50 (SNB-75): > 100 µM (inactive)
GI50 (COLO 205): 92.7 µM (inactive)
GI50 (HCT-15): 70.3 µM
GI50 (SK-OV-3): > 100 µM (inactive)
GI50 (MCF7): 70.1 µM (inactive)
GI50 (BT-549): 85.1 µM (inactive)
GI50 (NCI-H460): 32.4 µM (inactive)
GI50 (HOP-92): 52.7 µM (inactive)
GI50 (HCT-116): 59.2 µM (inactive)
GI50 (SK-MEL-5): 88.5 µM (inactive)
GI50 (EKVX): > 100 µM (inactive)
GI50 (NCI-H522): 24.5 µM (inactive)
GI50 (CCRF-CEM): 39.5 µM (inactive)
GI50 (OVCAR-4): > 100 µM (inactive)
GI50 (UO-31): 49.8 µM (inactive)
GI50 (SK-MEL-28): > 100 µM (inactive)
GI50 (SNB-19): > 100 µM (inactive)
GI50 (TK-10): 59.8 µM (inactive)
GI50 (OVCAR-3): > 100 µM (inactive)
GI50 (DU-145): 51.8 µM (inactive)
GI50 (SN12C): > 100 µM (inactive)
GI50 (HL-60): 23.6 µM (inactive)
GI50 (IGROV-1): > 100 µM (inactive)
GI50 (HOP-62): > 100 µM (inactive)
GI50 (UACC-62): 44.9 µM (inactive)
GI50 (M14): > 100 µM (inactive)
GI50 (NCI-H23): 69.7 µM (inactive)
GI50 (SW-620): > 100 µM (inactive)
GI50 (OVCAR-5): > 100 µM (inactive)

CSc1ccc2c(cc1=O)[C@@H](NC(=O)c1ccc(N)cc1)CCc1cc(O)c(O)c(O)c1-2
GI50 (OVCAR-8): 26.5 µM (inactive)
GI50 (T47D): 44 µM (inactive)
GI50 (RXF 393): > 75 µM (inactive)
GI50 (MDA-MB-435): 14.5 µM (inactive)
GI50 (MOLT-4): 33.1 µM (inactive)
GI50 (A549): 19.1 µM (inactive)
GI50 (HCC 2998): 13.6 µM (inactive)
GI50 (U-251): 19.4 µM (inactive)
GI50 (SF-295): 17.2 µM (inactive)
GI50 (K562): 12.1 µM (inactive)
GI50 (UACC-257): 20.8 µM (inactive)
GI50 (786-0): 12.8 µM (inactive)
GI50 (SF-268): 14.3 µM (inactive)
GI50 (HCT-15): 11.2 µM
GI50 (A498): 73.8 µM (inactive)
GI50 (BT-549): 16.9 µM (inactive)
GI50 (NCI-H460): 15 µM (inactive)
GI50 (HOP-92): 29.4 µM (inactive)
GI50 (EKVX): 36.4 µM (inactive)
GI50 (NCI-H522): 13.8 µM (inactive)
GI50 (OVCAR-4): 16.1 µM (inactive)
GI50 (NCI/ADR-RES): 18.6 µM (inactive)
GI50 (UO-31): 20.3 µM (inactive)
GI50 (SK-MEL-28): > 75 µM (inactive)
GI50 (SNB-19): 21.8 µM (inactive)
GI50 (DU-145): > 75 µM (inactive)
GI50 (SN12C): 29.5 µM (inactive)
GI50 (IGROV-1): 20.4 µM (inactive)
GI50 (HOP-62): 14.4 µM (inactive)
GI50 (ACHN): 17 µM (inactive)
GI50 (RPMI-8226): 35 µM (inactive)
GI50 (OVCAR-5): 22 µM (inactive)
